Assays:
[1] = Assay 2. Stability in Simulated Intestinal Fluid (SIF); assay type: in vitro ADME; conditions: SIF pH 6.7 with pancreatin, 1 μM, 37° C.
Procedure: Assay 2. Stability of acylated active agents in Simulated Intestinal Fluid (SIF). This assay was used to assess the stability of an acylated active agent in a small intestine. Phosphate buffer was prepared by dissolving 0.42 g of sodium hydroxide pellets and 3.95 g of monobasic sodium phosphate monohydrate and 6.19 g of sodium chloride in ultrapure water (MilliQ®, Millipore Sigma, Darmstadt, Germany). The pH was adjusted to 6.7 using aq. HCl and aq. NaOH, as necessary, and the solution was diluted with ultrapure water to produce 1 L of the pH 6.7 buffer. 112 mg FaSSIF powder (Biorelevant™, London, UK) was dissolved in 50 mL of the pH 6.7 buffer. 2 to 3 mL of the resulting solution were then added to 500 mg pancreatin (Millipore Sigma, Darmstadt, Germany). The resulting mixture was agitated by finger tapping the vessel containing the mixture until milky suspension formed. At this time, the remainder of the 50 mL FaSSiF/pH 6.7 buffer solution was added. The resulting suspension was flipped upside down 10 times to produce SIF, which was used fresh. Test compounds were dissolved in DMSO stock to 1 mM. An aliquot of the DMSO stock solution was removed and diluted in the SIF media in 15 mL falcon tubes to produce a mixture with a tested compound concentration of 1 μM. A 1 mL aliquot was immediately removed and diluted once with 1 volume of acetonitrile for T0 timepoint. The mixture was sealed and agitated at 37° C. in an incubator. Aliquots (1 mL) were removed at regular intervals and immediately quenched by the addition of 1 volume of acetonitrile. The resulting samples were analyzed by LC/MS to determine degradation rates.

[2] = Assay 1. Stability in Simulated Gastric Fluid (SGF); assay type: in vitro ADME; conditions: SGF pH 1.6 with pepsin, 1 μM, 37° C.
Procedure: Assay 1. Stability of acylated active agents in Simulated Gastric Fluid (SGF). This assay was used to assess the stability of an acylated active agent in a stomach.
Medium was prepared by dissolving 2 g of sodium chloride in 0.6 L in ultrapure water (MilliQ®, Millipore Sigma, Darmstadt, Germany). The pH was adjusted to 1.6 with 1N hydrochloric acid, and the volume was then adjusted to 1 L with purified water.
60 mg FaSSIF powder (Biorelevant™, London, UK) were dissolved in 500 mL buffer (above). Pepsin was added (0.1 mg/mL) (Millipore Sigma, Darmstadt, Germany), and the solution was stirred. The resulting SGF media were used fresh for each experiment.
Test compounds were dissolved in DMSO stock to 1 mM. An aliquot of the DMSO stock solution was removed and diluted in the SGF Media in 15 mL falcon tubes to generate a total compound concentration of 1 μM. A 1 mL aliquot was immediately removed and diluted once with 1 volume of acetonitrile for T0 timepoint. The mixture was sealed and mixed at 37° C. in an incubator. Aliquots (1 mL) were removed at regular intervals and immediately quenched by the addition of 1 volume of acetonitrile. The resulting samples were analyzed by LC/MS to determine degradation rates in SGF.

CCC(=O)O[C@@H]1[C@@H](OC(=O)CC)[C@H](OC(=O)CC)CO[C@H]1O [Compound 129, (2R,3R,4S,5R)-2-hydroxy-4,5-bis(propanoyloxy)oxan-3-yl propanoate]
Assay 2 (SIF) (% @ Remaining 4 hours) [1]: A (<25% of the tested compound remaining) | Assay 1 (SGF) (% Remaining @ 1 hour) [2]: C (>75% of the tested compound remaining)

O=C(CCc1c[nH]c2ccccc12)Oc1cc(C(=O)O)cc(OC(=O)CCc2c[nH]c3ccccc23)c1OC(=O)CCc1c[nH]c2ccccc12 [Compound 202, 3,4,5-tris({[3-(1H-indol-3-yl)propanoyl]oxy})benzoic acid]
Assay 2 (SIF) (% @ Remaining 4 hours) [1]: C (>75% of the tested compound remaining) | Assay 1 (SGF) (% Remaining @ 1 hour) [2]: A (<25% of the tested compound remaining)

CCC(=O)OC1O[C@@H](C)[C@@H](OC(=O)CC)[C@@H](OC(=O)CC)[C@@H]1OC(=O)CC (stereo partly drawn) [Compound 125, (3S,4R,5R,6S)-6-methyl-3,4,5-tris(propanoyloxy)oxan-2-yl propanoate]
Assay 2 (SIF) (% @ Remaining 4 hours) [1]: A (<25% of the tested compound remaining) | Assay 1 (SGF) (% Remaining @ 1 hour) [2]: C (>75% of the tested compound remaining)

CCC(=O)OC1OC[C@@H](OC(=O)CC)[C@H](OC(=O)CC)[C@H]1OC(=O)CC (stereo partly drawn) [Compound 130, (3R,4S,5R)-3,4,5-tris(propanoyloxy)oxan-2-yl propanoate]
Assay 2 (SIF) (% @ Remaining 4 hours) [1]: A (<25% of the tested compound remaining) | Assay 1 (SGF) (% Remaining @ 1 hour) [2]: C (>75% of the tested compound remaining)

CCCC(=O)Oc1cc(OC(=O)CCC)c2c(=O)cc(-c3ccc(OC(=O)CCC)c(OC(=O)CCC)c3)oc2c1 [Compound 171, 2-[3,4-bis(butanoyloxy)phenyl]-5-(butanoyloxy)-4-oxo-4H-chromen-7-yl butanoate]
Assay 2 (SIF) (% @ Remaining 4 hours) [1]: A (<25% of the tested compound remaining) | Assay 1 (SGF) (% Remaining @ 1 hour) [2]: C (>75% of the tested compound remaining)

CC(=O)Oc1ccc(C2CC(=O)c3c(OC(C)=O)cc(OC(C)=O)cc3O2)cc1 (stereo not shown) [Compound 9, [4-(5,7-diacetoxy-4-oxo-chroman-2-yl)phenyl] acetate]
Assay 2 (SIF) (% @ Remaining 4 hours) [1]: A (<25% of the tested compound remaining) | Assay 1 (SGF) (% Remaining @ 1 hour) [2]: C (>75% of the tested compound remaining)

CCCC(=O)O[C@@H]1[C@@H](OC(=O)CCC)[C@@H](OC(=O)CCc2c[nH]c3ccccc23)OC[C@@H]1OC(=O)CCC [Compound 81, (2R,3R,4S,5S)-4,5-bis(butanoyloxy)-2-{[3-(1H-indol-3-yl)propanoyl]oxy}oxan-3-yl butanoate]
Assay 2 (SIF) (% @ Remaining 4 hours) [1]: A (<25% of the tested compound remaining) | Assay 1 (SGF) (% Remaining @ 1 hour) [2]: B (25-75% of the tested compound remaining)

CCCC(=O)O[C@@H]1[C@H](OC(=O)CCC)[C@H](C)OC(Oc2ccc(N)cc2C(=O)O)[C@H]1OC(=O)CCC (stereo partly drawn) [Compound 41, 5-amino-2-(((3S,4R,5R,6S)-3,4,5-tris(butyryloxy)-6-methyltetrahydro-2H-pyran-2-yl)oxy)benzoic acid]
Assay 2 (SIF) (% @ Remaining 4 hours) [1]: C (>75% of the tested compound remaining) | Assay 1 (SGF) (% Remaining @ 1 hour) [2]: C (>75% of the tested compound remaining)

CCCC(=O)OC[C@H]1O[C@@H](Oc2ccccc2C(=O)O)[C@H](OC(=O)CCC)[C@@H](OC(=O)CCC)[C@@H]1OC(=O)CCC [Compound 28, 2-(((2S,3R,4S,5R,6R)-3,4,5-tris(butyryloxy)-6-((butyryloxy)methyl)tetrahydro-2H-pyran-2-yl)oxy)benzoic acid]
Assay 1 (SGF) (% Remaining @ 1 hour) [2]: C (>75% of the tested compound remaining)

CCC(=O)O[C@H]1[C@H](OC(=O)CC)[C@H](OC(=O)Cc2c[nH]c3ccccc23)O[C@@H](C)[C@H]1OC(=O)CC [Compound 118, (2S,3S,4R,5R,6S)-2-{[2-(1H-indol-3-yl)acetyl]oxy}-6-methyl-4,5-bis(propanoyloxy)oxan-3-yl propanoate]
Assay 2 (SIF) (% @ Remaining 4 hours) [1]: A (<25% of the tested compound remaining) | Assay 1 (SGF) (% Remaining @ 1 hour) [2]: C (>75% of the tested compound remaining)

CC(=O)Oc1cc(OC(C)=O)c2c(=O)c(OC(C)=O)c(-c3cc(OC(C)=O)c(OC(C)=O)c(OC(C)=O)c3)oc2c1 [Compound 11, [3,5-diacetoxy-4-oxo-2-(3,4,5-triacetoxyphenyl)chromen-7-yl] acetate]
Assay 1 (SGF) (% Remaining @ 1 hour) [2]: C (>75% of the tested compound remaining)

CCC(=O)O[C@@H]1[C@@H](OC(=O)CC)[C@@H](OC(=O)CC)CO[C@H]1O [Compound 127, (3S,4S,5R,6R)-6-hydroxy-4,5-bis(propanoyloxy)oxan-3-yl propanoate]
Assay 2 (SIF) (% @ Remaining 4 hours) [1]: B (25-75% of the tested compound remaining) | Assay 1 (SGF) (% Remaining @ 1 hour) [2]: C (>75% of the tested compound remaining)

CCC(=O)OC[C@H]1OC(O)[C@H](OC(=O)CC)[C@@H](OC(=O)CC)[C@@H]1OC(=O)CC (stereo partly drawn) [Compound 110, [(2R,3R,4S,5R)-6-hydroxy-3,4,5-tris(propanoyloxy)oxan-2-yl]methyl propanoate]
Assay 2 (SIF) (% @ Remaining 4 hours) [1]: A (<25% of the tested compound remaining) | Assay 1 (SGF) (% Remaining @ 1 hour) [2]: C (>75% of the tested compound remaining)

CCC(=O)O[C@@H]1[C@H](OC(=O)CC)[C@H](C)OC(Oc2ccccc2C(=O)O)[C@H]1OC(=O)CC (stereo partly drawn) [Compound 25, 2-(((3S,4R,5R,6S)-6-methyl-3,4,5-tris(propionyloxy)tetrahydro-2H-pyran-2-yl)oxy)benzoic acid]
Assay 2 (SIF) (% @ Remaining 4 hours) [1]: C (>75% of the tested compound remaining) | Assay 1 (SGF) (% Remaining @ 1 hour) [2]: C (>75% of the tested compound remaining)

CCCC(=O)Oc1ccc(C2CC(=O)c3c(OC(=O)CCC)cc(OC(=O)CCC)cc3O2)cc1 (stereo not shown) [Compound 10, [4-[5,7-di(butanoyloxy)-4-oxo-chroman-2-yl]phenyl] butanoate]
Assay 2 (SIF) (% @ Remaining 4 hours) [1]: A (<25% of the tested compound remaining) | Assay 1 (SGF) (% Remaining @ 1 hour) [2]: B (25-75% of the tested compound remaining)

CC(=O)Oc1cc(OC(C)=O)c2c(=O)c(OC(C)=O)c(-c3ccc(OC(C)=O)c(OC(C)=O)c3)oc2c1 [Compound 4, [2-acetoxy-4-(3,5,7-triacetoxy-4-oxo-chromen-2-yl)phenyl] acetate]
Assay 1 (SGF) (% Remaining @ 1 hour) [2]: C (>75% of the tested compound remaining)

CCC(=O)Oc1cc(OC(=O)CC)c2c(=O)c(OC(=O)CC)c(-c3cc(OC(=O)CC)c(OC(=O)CC)c(OC(=O)CC)c3)oc2c1 [Compound 13, [4-oxo-3,5-di(propanoyloxy)-2-[3,4,5-tri(propanoyloxy)phenyl]chromen-7-yl] propanoate]
Assay 2 (SIF) (% @ Remaining 4 hours) [1]: A (<25% of the tested compound remaining) | Assay 1 (SGF) (% Remaining @ 1 hour) [2]: B (25-75% of the tested compound remaining)

CCC(=O)Oc1cc(OC(=O)CC)c2c(=O)c(OC(=O)CC)c(-c3ccc(OC(=O)CC)c(OC(=O)CC)c3)oc2c1 [Compound 174, [4-[4-oxo-3,5,7-tri(propanoyloxy)chromen-2-yl]-2-propanoyloxy-phenyl] propanoate]
Assay 1 (SGF) (% Remaining @ 1 hour) [2]: C (>75% of the tested compound remaining)

CCC(=O)O[C@@H]1[C@@H](OC(=O)CC)[C@H](OC(=O)CCc2c[nH]c3ccccc23)OC[C@H]1OC(=O)CC [Compound 132, (2S,3R,4S,5R)-3,4,5-tris(propanoyloxy)oxan-2-yl 3-(1H-indol-3-yl)propanoate]
Assay 1 (SGF) (% Remaining @ 1 hour) [2]: C (>75% of the tested compound remaining)

CCC(=O)OC[C@H]1O[C@@H](OC(=O)/C=C/c2c[nH]c3ccccc23)[C@H](OC(=O)CC)[C@@H](OC(=O)CC)[C@@H]1OC(=O)CC [Compound 95, (2S,3R,4S,5R,6R)-3,4,5-tris(propanoyloxy)-6-[(propanoyloxy)methyl]oxan-2-yl (2E)-3-(1H-indol-3-yl)prop-2-enoate]
Assay 1 (SGF) (% Remaining @ 1 hour) [2]: B (25-75% of the tested compound remaining)
